Reference: patent US12428428B2, “Tricyclic tetrahydroisoquinoline derivative, preparation method therefor and application thereof in medicine” (JIANGSU HENGRUI MEDICINE CO., LTD., priority 2020, dated 2025)

Assays:
[1] = molecular target: ER (estrogen receptor) (Homo sapiens (Human), UniProt P03372); assay: Inhibition of binding of E to ER (MCF-7/ERE-luciferase reporter cells); assay type: cell-based; conditions: MCF-7/ERE-luciferase cells, 0.1 nM estradiol, 24 h
Procedure: The compounds of the present disclosure can inhibit the binding of E (estrogen) to ER (estrogen receptor), thereby blocking the binding of the complex of E and ER to ERE (estrogen response element), and consequently the expression of downstream luciferase proteins. The inhibitory effects of the compounds of the present disclosure on the binding of E to ER was tested by using the following method.
An ERE was cloned upstream of the luciferase gene, and MCF-7/ERE-luciferase monoclonal cells were selected by transfection of MCF-7 (TCHu74, National Collection of Authenticated Cell Cultures). The MCF-7/ERE-luciferase cells were seeded into a 96-well plate with an MEM (hyclone, SH30024.01B) medium containing 10% charcoal stripped FBS (Moregate, FBSF), 1% sodium pyruvate (sigma, S8636), 1% non-essential amino acids (sigma, M7145) and 500 μg/mL G418 at a density of 30,000 cells/well and cultured at 37° C. with 5% CO2. 20 mM stock solutions of the drugs are prepared, serially diluted 10-fold with 100% DMSO, and then diluted 20-fold with the medium. After the cells were cultured for 24 h, the medium was removed. 0.1 nM estradiol (sigma, E2758) and 10 μL of a medium-diluted drug were added to each well, and DMSO was added to the control group. The mixtures were well mixed by gentle shaking. The cells were cultured in an incubator at 37° C. with 5% CO2 for 24 h, and then the cell culture liquid was removed, followed by the addition of 50 μL of a luciferase substrate (Promega, E6110) to each well. The plate was let stand at room temperature in the dark for 10-15 min, and the chemiluminescence signal values were determined.
The inhibitory effects of the compounds of the present disclosure on the binding of E to ER were tested through the above experiment. The chemiluminescence signal value was plotted against the compound concentration (in log form) using Graphpad Prism, and the IC50 values of the compounds were obtained.

[2] = molecular target: T1, CYP3A4 (Homo sapiens (Human), UniProt P08684); assay: Inhibition of site of metabolism of testosterone in human liver microsome CYP3A4; assay type: in vitro ADME; conditions: testosterone substrate
Procedure: (§1) • 1. Phosphate buffer (20×PBS, purchased from Sangon); • 2. NADPH (ACROS, A2646-71-1); • 3. Human liver microsome (Corning Gentest, Cat No, 452161, Lot No. 905002, Donor36); • 4. ABI QTrap 4000 LC-MS System (AB Sciex); • 5. ZORBAX Extend-C18, 3×50 mm, 3.5 μm (Agilent, USA); • 6. CYP probe substrate (testosterone, Vocko, CAS No. [58-22-0]/75 μM) and positive control inhibitor (ketoconazole, SIGMA, Cat No. K1003-100MG).
(§2) A 100 mM PBS buffer was prepared. A 100 mM PBS buffer was prepared. A 0.25 mg/mL microsome solution, a 7.5 mM MgCl2 and a 5 mM NADPH solution were prepared using the buffer. A 30 mM stock solution was diluted with DMSO to obtain 30 mM, 10 mM, 3 mM, 1 mM, 0.3 mM, 0.03 mM, 0.003 mM and 0 mM serial solutions I, which were further diluted 200-fold with phosphate buffer (PBS) to obtain serial test solutions II (150, 50, 15, 5, 1.5, 0.15, 0.015 and 0 μM). A testosterone working solution was diluted with PBS to 375 μm.
(§3) 40 μL of a 0.25 mg/mL microsome solution prepared in 7.5 mM MgCl2 and 20 μL of each of the 375 μM testosterone working solution and the compound working solutions (150, 50, 15, 5, 1.5, 0.15, 0.015 and 0 μM) were measured out and well mixed. Ketoconazole at the same concentration was used in place of the compounds as a positive control group. The mixtures were pre-incubated […] at 37° C. for 5 min at the same time. After 5 minutes, 20 μL of NADPH was added to each well to start reactions. The mixtures were incubated for 30 min. After 30 minutes, 250 μL of internal standard-containing acetonitrile was added to all the samples. The mixtures were well mixed, shaken at 800 rpm for 10 min, and then centrifuged at 3700 rpm for 10 min. 100 μL of the supernatant and 80 μL of ultrapure water were well mixed and subjected to LC-MS/MS analysis.
The IC50 values of the drugs for the site of metabolism of testosterone in CYP3A4 were calculated using Graphpad Prism and are shown in Table 6.

[3] = molecular target: T1, CYP3A4; assay: Inhibition of site of metabolism of midazolam in human liver microsome CYP3A4; assay type: in vitro ADME; conditions: midazolam substrate
Procedure: as §1, with “9050002, Donor, 36);” for “905002, Donor36);”, “(midazolam, TRC, M343000/3” for “(testosterone, Vocko, CAS No. [58-22-0]/75”
as §2, with “A” for “A 100 mM PBS buffer was prepared. A”, “midazolam” for “testosterone”, “15 μM.” for “375 μm.”
as §3, with “of the 15 μM midazolam” for “of the 375 μM testosterone”, “15 μM midazolam working solution” for “375 μM testosterone working solution”, “30 min. Duplicate samples were set for all of the incubated samples. After 30” for “30 min. After 30”
The IC50 values of the drugs for the site of metabolism of midazolam in CYP3A4 were calculated using Graphpad Prism and are shown in Table 5.

ER (estrogen receptor), sequence (P03372 whole entry): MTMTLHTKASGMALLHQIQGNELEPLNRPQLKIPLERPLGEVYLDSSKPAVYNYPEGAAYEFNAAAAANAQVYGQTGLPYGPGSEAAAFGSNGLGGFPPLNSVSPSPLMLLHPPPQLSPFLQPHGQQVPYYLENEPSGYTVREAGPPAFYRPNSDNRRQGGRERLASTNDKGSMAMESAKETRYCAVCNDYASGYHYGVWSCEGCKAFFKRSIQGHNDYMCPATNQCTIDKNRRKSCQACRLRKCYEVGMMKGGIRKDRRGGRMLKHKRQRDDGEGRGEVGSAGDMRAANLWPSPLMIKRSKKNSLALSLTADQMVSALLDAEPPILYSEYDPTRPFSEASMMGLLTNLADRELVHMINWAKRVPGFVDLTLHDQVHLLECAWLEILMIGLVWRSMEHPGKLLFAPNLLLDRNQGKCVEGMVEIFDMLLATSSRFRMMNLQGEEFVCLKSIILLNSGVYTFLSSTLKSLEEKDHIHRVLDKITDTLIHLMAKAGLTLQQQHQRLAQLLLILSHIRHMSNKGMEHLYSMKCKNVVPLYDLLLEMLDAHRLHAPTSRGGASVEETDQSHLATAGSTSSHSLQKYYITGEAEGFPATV
T1 sequence (P08684 whole entry): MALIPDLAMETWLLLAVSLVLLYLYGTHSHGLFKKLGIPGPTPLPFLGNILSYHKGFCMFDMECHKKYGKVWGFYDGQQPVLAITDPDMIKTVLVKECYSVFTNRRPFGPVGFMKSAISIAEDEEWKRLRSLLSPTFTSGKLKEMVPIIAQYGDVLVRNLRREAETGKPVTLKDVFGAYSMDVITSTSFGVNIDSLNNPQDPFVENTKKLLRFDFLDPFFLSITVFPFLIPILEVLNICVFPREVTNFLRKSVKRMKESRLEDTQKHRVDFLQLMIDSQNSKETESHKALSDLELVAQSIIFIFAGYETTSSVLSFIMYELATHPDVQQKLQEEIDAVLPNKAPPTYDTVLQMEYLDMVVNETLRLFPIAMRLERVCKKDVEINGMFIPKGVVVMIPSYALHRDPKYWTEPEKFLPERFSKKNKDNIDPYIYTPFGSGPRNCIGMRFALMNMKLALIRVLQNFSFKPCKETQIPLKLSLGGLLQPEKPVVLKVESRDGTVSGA

Row | SMILES | IC50 [1] [nM] | IC50 [2] [µM] | IC50 [3] [µM]
1 | C[C@@H]1Cc2cc3c(cc2[C@@H](c2ccc(N[C@H]4CCN(CCCF)C4)cc2)N1CC(F)(F)F)OCO3 [Example 1, (S)-1-(3-fluoropropyl)-N-(4-((5R,7R)-7-methyl-6-(2,2,2-trifluoroethyl)-5,6,7,8-tetrahydro-[1,3]dioxolo[4,5-g]isoquinolin-5-yl)phenyl)pyrrolidin-3-amine] | 0.14 | 7.31 | 15.8
2 | C[C@@H]1Cc2cc3c(cc2[C@@H](c2ccc(N[C@H]4CCN(CCCF)C4)cc2)N1CC(F)(F)CO)OCO3 [Example 3, 2,2-Difluoro-3-((5R,7R)-5-(4-(((S)-1-(3-fluoropropyl)pyrrolidin-3-yl)amino)phenyl)-7-methyl-7,8-dihydro-[1,3]dioxolo[4,5-g]isoquinolin-6(5H)-yl)propan-1-ol] | 0.44 | 14.6 | 10
3 | C[C@@H]1Cc2cc3c(cc2[C@@H](c2ccc(N[C@H]4CCN(CCCF)C4)cn2)N1CC(F)(F)CO)OCO3 [Example 4, 2,2-Difluoro-3-((5S,7R)-5-(5-(((S)-1-(3-fluoropropyl)pyrrolidin-3-yl)amino)pyridin-2-yl)-7-methyl-7,8-dihydro-[1,3]dioxolo[4,5-g]isoquinolin-6(5H)-yl)propan-1-ol] | 0.37 | 15.5 | –
4 | C[C@@H]1Cc2cc3c(cc2[C@@H](c2ncc(N[C@H]4CCN(CCCF)C4)cc2F)N1CC(F)(F)F)OCO3 [Example 9, 5-Fluoro-N—((S)-1-(3-fluoropropyl)pyrrolidin-3-yl)-6-((5S,7R)-7-methyl-6-(2,2,2-trifluoroethyl)-5,6,7,8-tetrahydro-[1,3]dioxolo[4,5-g]isoquinolin-5-yl)pyridin-3-amine] | 0.46 | – | –
5 | C[C@@H]1Cc2cc3c(cc2[C@@H](c2ccc(NC4CN(CCCF)C4)cn2)N1CC(F)(F)CO)OCO3 [Example 14, 2,2-Difluoro-3-((5S,7R)-5-(5-((1-(3-fluoropropyl)azetidin-3-yl)amino)pyridin-2-yl)-7-methyl-7,8-dihydro-[1,3]dioxolo[4,5-g]isoquinolin-6(5H)-yl)propan-1-ol] | 0.5 | – | –
6 | C[C@@H]1Cc2cc3c(cc2[C@@H](c2ccc(NC4CN(CCCF)C4)cn2)N1CC(F)(F)F)OCO3 [Example 17, N-(1-(3-fluoropropyl)azetidin-3-yl)-6-((5S,7R)-7-methyl-6-(2,2,2-trifluoroethyl)-5,6,7,8-tetrahydro-[1,3]dioxolo[4,5-g]isoquinolin-5-yl)pyridin-3-amine] | 0.43 | – | –
7 | C[C@@H]1Cc2cc3c(cc2[C@@H](c2ccc(NC4CN(CCCF)C4)cc2)N1CC(F)(F)CO)OCO3 [Example 18, 2,2-Difluoro-3-((5R,7R)-5-(4-((1-(3-fluoropropyl)azetidin-3-yl)amino)phenyl)-7-methyl-7,8-dihydro-[1,3]dioxolo[4,5-g]isoquinolin-6(5H)-yl)propan-1-ol] | 0.07 | – | –

Results, then the compound that gave them:

Row | IC50 [1] [nM] | IC50 [2] [µM] | IC50 [3] [µM] | SMILES
8 | 0.1 | > 30 | > 30 | C[C@@H]1Cc2cc3c(cc2[C@@H](c2c(F)cc(N[C@H]4CCN(CCCF)C4)cc2F)N1CC(F)(F)F)OCO3 [Example 2, (S)—N-(3,5-difluoro-4-((5S,7R)-7-methyl-6-(2,2,2-trifluoroethyl)-5,6,7,8-tetrahydro-[1,3]dioxolo[4,5-g]isoquinolin-5-yl)phenyl)-1-(3-fluoropropyl)pyrrolidin-3-amine]
9 | 0.05 | – | – | C[C@@H]1Cc2cc3c(cc2[C@@H](c2c(F)cc(N[C@H]4CCN(CCCF)C4)cc2F)N1CC(F)(F)CO)OCO3 [Example 5, 3-((5S,7R)-5-(2,6-difluoro-4-(((S)-1-(3-fluoropropyl)pyrrolidin-3-yl)amino)phenyl)-7-methyl-7,8-dihydro-[1,3]dioxolo[4,5-g]isoquinolin-6(5H)-yl)-2,2-difluoro-1-propanol]
10 | 0.27 | – | – | C[C@@H]1Cc2cc3c(cc2[C@@H](c2ccc(N[C@H]4CCN(CCCF)C4)cn2)N1CC(F)(F)F)OCO3 [Example 6, N—((S)-1-(3-fluoropropyl)pyrrolidin-3-yl)-6-((5S,7R)-7-methyl-6-(2,2,2-trifluoroethyl)-5,6,7,8-tetrahydro-[1,3]dioxolo[4,5-g]isoquinolin-5-yl)pyridin-3-amine]
11 | 0.35 | – | – | C[C@@H]1Cc2cc3c(cc2[C@@H](c2ncc(N[C@H]4CCN(CCCF)C4)cc2F)N1CC(F)(F)CO)OCO3 [Example 11, 2,2-Difluoro-3-((5S,7R)-5-(3-fluoro-5-(((S)-1-(3-fluoropropyl)pyrrolidin-3-yl)amino)pyridin-2-yl)-7-methyl-7,8-dihydro-[1,3]dioxolo[4,5-g]isoquinolin-6(5H)-yl)propan-1-ol]
12 | 0.19 | – | – | C[C@@H]1Cc2cc3c(cc2[C@@H](c2c(F)cc(O[C@H]4CCN(CCCF)C4)cc2F)N1CC(F)(F)F)OCO3 [Example 15, (5S,7R)-5-(2,6-difluoro-4-(((S)-1-(3-fluoropropyl)pyrrolidin-3-yl)oxy)phenyl)-7-methyl-6-(2,2,2-trifluoroethyl)-5,6,7,8-tetrahydro-[1,3]dioxolo[4,5-g]isoquinoline]
13 | 0.07 | – | – | [2H]C1([2H])Oc2cc3c(cc2O1)[C@@H](c1ccc(N[C@H]2CCN(CCCF)C2)cc1)N(CC(F)(F)CO)[C@H](C)C3 [Example 19, 2,2-Difluoro-3-((5R,7R)-5-(4-(((S)-1-(3-fluoropropyl)pyrrolidin-3-yl)amino)phenyl)-7-methyl-7,8-dihydro-[1,3]dioxolo[4,5-g]isoquinolin-6(5H)-yl-2,2-d2)propan-1-ol]
